Assay results: patent publication US9051572B2, “Modulators of Itch ubiquitinase activity” (RYBOQUIN COMPANY LIMITED, priority 2005, dated 2015)
Peptide text beside a SMILES is read from it. * marks the point of attachment. Cbz = O=C(OCc1ccccc1)*

Key:
Type in all cases: cell-based, human
Itch = assay: Western blot of endogenous Itch after DNA damaging agents in Saos-2 cells; conditions: 24 and 48 hours, 2 μM doxorubicin, 15 μM etoposide, 5 μM cisplatin
Description: (§1) FIG. 7 Itch is down regulated by DNA damaging agents. Saos-2 cells were treated with 2 μM doxorubicin (Doxo) for 24 or 48 hours then collected by trypsinization. Cells were lysed for western blotting (A) and half of the cells were ethanol fixed for apoptosis analysis (B). Western blots were performed with either anti-Itch (upper panel) or anti-p73 (lower panel) antibodies. Blots were stripped and re-probed with anti Lamin B antibody to show equal loading. Apoptosis was evaluated by flow cytometric analysis of PI stained cells. Non-treated controls (N.T.) are shown. H1299 cells transfected with HA-TAp73 ? (Con) are loaded as a control for p73 western blot.
(D) Western blot using anti-Itch antibody on Saos-2 cells treated for 24 and 48 hours with either 15 μM etoposide (Etopo) or 5 μM cisplatin (Cisp). Non-treated control cells are also shown (N.T.). Blots were stripped and re-probed with anti p73 antibody and Lamin B antibody to show equal loading.
Proteins were separated on SDS-PAGE and blotted onto nitrocellulose membranes. Filters were blocked with TBST 5% non-fat dry milk and incubated with primary antibodies for 2 hrs at room temperature (RT). Filters were incubated for 1 hour at RT using the appropriate horseradish peroxidase-conjugated secondary antibody (rabbit and mouse BioRad; goat Santa Cruz). Detection was performed with the enhanced chemiluminescence Supersignal West Pico (Pierce). […] Endogenous Itch was detected with a mouse monoclonal antibody (BD Bioscience), Actin (sc-1615) polyclonal goat antibody (Santa Cruz), Lamin B (sc-6217) goat polyclonal antibody (Santa Cruz), Hsp70 (sc-1060) polyclonal goat antibody (Santa Cruz), β-Tubulin (sc-9104) polyclonal rabbit antibody (Santa Cruz), p21 (sc-756) polyclonal rabbit antibody (Santa Cruz), p53 DO-1 and Pab1801 monoclonal mouse antibodies (Santa Cruz). c-Myc-tagged constructs were detected or immuno-precipitated with the sc-40 monoclonal mouse antibody (Santa Cruz), HA-tagged with the sc-805 polyclonal rabbit antibody (Santa Cruz), and the Flag-tagged constructs with the M2 monoclonal mouse antibody (Sigma).

Saos-2 cells = assay: Apoptosis by flow cytometric analysis of PI stained cells after doxorubicin; conditions: 2 μM doxorubicin, 24 or 48 hours
Description: as §1
Human embryonal kidney cells (Hek293), HeLa cells and MEFs were grown in Dulbecco's modified Eagle medium (DMEM) (GibcoBRL); the human lung carcinoma cells H1299 and the human osteosarcoma cells Saos-2 were cultured in RPMI (GibcoBRL). MEF Itch−/− cells were prepared from Itch−/− mice (Y—C-Liu) or they were generous gift from Neil Copeland, Lynda Matesic, Nancy Jenkins. All media were supplemented with 10% (v/v) fetal bovine serum (FBS) (GibcoBRL). Saos-2-TAp73 ? were a kind gift of K. Vousden (Nakano, 2000). Saos-2-ΔNp73 ? were generated as described before (Maisse et al., 2004). […] Apoptosis was analysed by flow cytometric evaluation of DNA fragmentation.

TAp73 = assay: Western blot of endogenous p73 after doxorubicin in Saos-2 cells; conditions: 2 μM doxorubicin, 24 or 48 hours
Description: as §1
Proteins were separated on SDS-PAGE and blotted onto nitrocellulose membranes. Filters were blocked with TBST 5% non-fat dry milk and incubated with primary antibodies for 2 hrs at room temperature (RT). Filters were incubated for 1 hour at RT using the appropriate horseradish peroxidase-conjugated secondary antibody (rabbit and mouse BioRad; goat Santa Cruz). Detection was performed with the enhanced chemiluminescence Supersignal West Pico (Pierce). Anti-p73 is a monoclonal antibody (ER15) (Neomarkers). […]

TAp73α = assay: Steady state protein levels analysis with proteasome inhibitor in Hek293 cells co-transfected with Itch; conditions: MG132 50 μM, 40 min
Description: The concentration of TAp73α, TAp73 ? and p53 was monitored by Western blotting. […] 25 μg of cell lysates were subjected to Western blotting. p73 proteins were detected by an anti-HA antibody. The same blots were re-probed with anti Myc antibody to detect Itch and with anti-Actin antibody to show equal loading.

SMILES	endogenous Itch protein levels (Itch)	apoptosis (Saos-2 cells)	endogenous TAp73 levels (TAp73)	steady state levels of TAp73α in presence of Itch (TAp73α)
COc1cc([C@@H]2c3cc4c(cc3[C@@H](O[C@@H]3O[C@@H]5CO[C@@H](C)O[C@H]5[C@H](O)[C@H]3O)[C@H]3COC(=O)[C@H]23)OCO4)cc(OC)c1O [etoposide]	dramatic reduction in Itch protein levels	–	–	–
N.N.[Cl][Pt][Cl] [cisplatin]	dramatic reduction in Itch protein levels	–	–	–
COc1cccc2c1C(=O)c1c(O)c3c(c(O)c1C2=O)C[C@@](O)(C(=O)CO)C[C@@H]3O[C@H]1C[C@H](N)[C@H](O)[C@H](C)O1 [doxorubicin]	down-regulated	increase in apoptosis	increase in endogenous TAp73 levels	–
CC(C)C[C@@H](C=O)NC(=O)[C@H](CC(C)C)NC(=O)[C@H](CC(C)C)NC(=O)OCc1ccccc1 [MG132] (Cbz-Leu-Leu-Leu-aldehyde)	–	–	–	blocks the Itch-mediated TAp73α degradation
